According to patent US10052381B2, “Classifiers of NF-κB pathway activation, devices, and methods of use thereof” (Emory University, priority 2012, dated 2018):

How the values were obtained:
Format in all cases: cell-based
[1] = test system: p100 gene classifier (noncanonical NF-κB pathway); test: nCounter gene expression of the p100 classifier in DLBCL cell lines after drug treatment
Description: (§1) FIG. 5A illustrates that rituximab increases the apoptotic effect of doxorubicin when it is associated with suppression of p105 and induction of p100 classifier gene expression. Boxplot of p100 and p105 gene list illustrating the changes in gene expression in cells treated with doxorubicin ([…]) or rituximab ([…]). Cells were treated for 24 hours and the percent of live cells was measured using an ImageXpress 5000A Automated Acquisition and Analysis System (Molecular Devices), quantitating for Yo-pro-1 or PI-negative cells.
(§2) Given the capacity of the p105 classifier to predict a better response to RCHOP, the extent to which both classifiers were targeted by rituximab was investigated. In this investigation, the pathway dysregulation in a series of DLBCL cell lines and their changes in gene expression produced by DNA damaging agent (doxorubicin) and rituximab was measured. Based on their known baseline pattern of NF-κB activation, cell lines with enhanced (OCI-LY3, OCI-LY10) and suppressed (OCI-LY19 and OCI-LY2) NF-κB activation were selected for further testing (FIG. 5A).
(§3) nCounter Analysis System technology was developed by NanoString Technologies. In brief, nCounter™ assay was performed using 100 ng of total RNA or 2 μL of tissue lysate per replicate. The nCounter CodeSet for these studies contained probe pairs for 47 test and 3 control genes. All 47 genes and controls (n=3) were assayed simultaneously in multiplexed reactions. […] Subsequently, supervised complete linkage agglomerative hierarchical clustering analysis was performed.

[2] = test system: p105 gene classifier (canonical NF-κB pathway); test: nCounter gene expression of the p105 classifier in DLBCL cell lines after drug treatment
Description: as §1, §2, §3

[3] = test system: DLBCL cell lines OCI-LY3, OCI-LY10, OCI-LY19 and OCI-LY2; test: Apoptosis studies (Yo-pro-1 / PI negative live cells, ImageXpress); settings: rituximab alone, titrating doses, 24 hours; all four cell lines
Description: To assess the consequence of rituximab's functional effects, the degree of apoptosis produced after treating all four cell lines with titrating doses of doxorubicin and rituximab was measured.
For apoptosis studies, 10^4 cells were treated with titrating doses of doxorubicin (titrating doses: […], Sigma) or rituximab (titrating doses: 1.5, 2.5, 5, 10 and 20 mg/mL, Biogen Idec Inc). Twenty four hours later cells were stained with Yo-pro-1 iodide and propidium Iodide (PI, both from Invitrogen). Live cells were measured using an ImageXpress 5000A Automated Acquisition and Analysis System (Molecular Devices), quantitating for Yo-pro-1 iodide and PI negative cells.

[4] = doxorubicin alone, OCI-LY3, OCI-LY10 cells
[5] = rituximab with doxorubicin, NF-κB activated cell lines (OCI-LY3, OCI-LY10)

| Molecule | gene expression of p100 target genes [1, 4] | gene expression of p105 target genes [2, 4] | change in expression of p100 classifier ([1]; OCI-LY2 and OCI-LY19 cells) | effect on doxorubicin's induction of p100 gene classifier [1, 5] | change in expression of p105 classifier ([2]; OCI-LY2 and OCI-LY19 cells) | effect on doxorubicin's induction of p105 gene classifier [2, 5] | degree of apoptosis [3] |
| --- | --- | --- | --- | --- | --- | --- | --- |
| COc1cccc2c1C(=O)c1c(O)c3c(c(O)c1C2=O)C[C@@](O)(C(=O)CO)C[C@@H]3O[C@H]1C[C@H](N)[C@H](O)[C@H](C)O1 [doxorubicin] | moderately induced | moderately induced |  |  |  |  |  |
| rituximab |  |  | minimally changed | enhanced the induction | minimally changed | suppressed doxorubicin's induction | did not induce significant apoptosis beyond background levels |
